Reference: US8598183B2, “Solid state forms of a potent HCV inhibitor” (Boehringer Ingelheim International GmbH, priority 2010, dated 2013)
Marks after values point to notes of the source that are not given here.

Legend:
Type in all cases: physicochemical
[1] = Solubility of Compound (1) in physiological pH range; thermodynamic solubility
Procedure: Doses of Compound (1) up to 400 to 600 mg per dose may be required to be delivered to obtain exposures necessary for sufficient efficacy in vivo. Based on thermodynamic solubility of Compound (1), solubility of 0.005-0.01 mg/ml is estimated for Compound (1) sodium salt.

[2] = Powder dissolution / solubility of Compound (1) sodium salt in water at different concentrations; details: for % dissolved / CMC value: water; for CMC value: estimated
Procedure: Based on thermodynamic solubility of Compound (1), solubility of 0.005-0.01 mg/ml is estimated for Compound (1) sodium salt. […] This unique behavior of high solubility at high drug concentrations is most likely attributable to tendency of the drug substance to self-micellize. A CMC value of 41.4 mM (corresponding to 28 mg/mL) is estimated.

[3] = Water content at variable humidity (adsorption curve of VTI measurement); details: 25° C.
Procedure: Bruker D-8 Advance X-Ray Powder Diffractometer in parallel beam mode with a scintillation detector and using a variable temperature/humidity stage. Humidity adjusted and equilibrated at 25° C., scans from 2-35° 2-theta, 0.05° 2-theta step size, 4 seconds/step At higher humidity (50% RH, and 85% RH) the diffraction lines in the resulting patterns are shifted consistent with lattice expansion to accommodate more water in the lattice. The amount of water at 50% RH based on the adsorption curve of the VTI measurement is 1.7%, and the amount of water at 85% RH is 4.5%. When the sample is exposed to ambient conditions after high humidity the resulting diffraction pattern is again consistent with that of the starting material.

[4] = Powder dissolution of triturated mixtures in capsules in 500 mL pH 6.8 buffer; details: capsule
Description: One class of solubilizer excipients, basifiers, act by increasing the microenvironment pH and thereby increasing the local solubility of the drug (for a drug containing an acid moiety). Another class of solubilizer excipients, surfactants, also act by increasing the local solubility of the drug. […] For example, an enhancement in dissolution was obtained when surfactants, for example, sodium lauryl sulfate or Vitamin E TPGS, were used in combination with basifiers, for example, L-arginine, meglumine or L-lysine. […] For example, only 1% drug release was obtained when Compound (1) sodium salt crystalline was present. The % drug release was 54% at 60 minutes in the presence of 100 mg Arginine alone and 59% in the presence of Sodium lauryl sulfate alone (Table 2). However, in presence of 100 mg of Arginine along with 100 mg of Sodium lauryl sulfate, the % drug release increased to 93% at 60 minutes (Table 3) indicating enhancement in dissolution when both surfactant and basifier were used in combination.

**Q.** For `Cn1c(C2(NC(=O)c3ccc4c(C5CCCC5)c(-c5ncc(Br)cn5)n(C)c4c3)CCC2)nc2ccc(/C=C/C(=O)[O-])cc21.[Na+]` [Compound (1) sodium salt], which “solubility estimated based on thermodynamic solubility of Compound (1)” value [1] is on record?
**A.** The value was 5 to 10 µg/mL.

**Q.** And the dissolution in water ([2]; concentrations exceeding the CMC value)?
**A.** The dissolution in water was “dissolves completely”.

**Q.** And the “% dissolved” value ([2]; conc 0.1 mg/ml)?
**A.** Its value is 13.4%.

**Q.** What about the “% dissolved” value ([2]; conc 0.3 mg/ml) of the same molecule?
**A.** Its value is 15.0%.

**Q.** What about the “% dissolved” value ([2]; conc 1.0 mg/ml) of the same molecule?
**A.** Its value is 15.4%.

**Q.** And the “% dissolved” value ([2]; conc 3.0 mg/ml)?
**A.** The value was 46.6%.

**Q.** What about the “% dissolved” value ([2]; conc 10.0 mg/ml) of the same molecule?
**A.** Its value is 90.0%.

**Q.** And the “% dissolved” value ([2]; conc 30.0 mg/ml)?
**A.** The value was 100.0%.

**Q.** What about the “% dissolved” value ([2]; conc 100.0 mg/ml) of the same molecule?
**A.** Its value is 100.0%.

**Q.** What about the “% dissolved” value ([2]; conc 200.0 mg/ml) of the same molecule?
**A.** The value was 100.0%.

**Q.** What about the “% dissolved” value ([2]; concentrations ≦1 mg/mL) of the same molecule?
**A.** The value was 15%.

**Q.** What about the CMC value [2] of the same molecule?
**A.** The CMC value was 41.4 mM.

**Q.** And the CMC value ([2]; corresponding to the mM value)?
**A.** Its CMC value is 28 mg/mL.

**Q.** And the amount of water ([3]; 50% RH)?
**A.** The amount of water was 1.7%.

**Q.** And the amount of water ([3]; 85% RH)?
**A.** The amount of water was 4.5%.

**Q.** And the “% Release, average (range)” value ([4]; 200 mg drug + Arginine 100 mg, 90 (infinity), n = 4)?
**A.** The value was 54 (40-58) %.

**Q.** What about the “% Release, average (range)” value ([4]; 200 mg drug + Arginine 100 mg, 15 min, n = 4) of the same molecule?
**A.** The value was 43 (27-53)* %.

**Q.** And the “% Release, average (range)” value ([4]; 200 mg drug + Arginine 100 mg, 30 min, n = 4)?
**A.** The value was 54 (39-62) %.

**Q.** And the “% Release, average (range)” value ([4]; 200 mg drug + Arginine 100 mg, 60 min, n = 4, listed as Compound (1) Na Salt)?
**A.** The value was 54 (38-60) %.

**Q.** What about the “% Release, average (range)” value ([4]; 200 mg drug + Arginine 100 mg, 60 min, n = 4, listed as Compound (1) sodium salt crystalline) of the same molecule?
**A.** The value was 54%.

**Q.** What about the “% Release, Average of n = 2 (range)” value ([4]; 200 mg drug + Arginine + SDS (40 mg + 20 mg), 15 min) of the same molecule?
**A.** The value was 74 (70-78) %.

**Q.** What about the “% Release, Average of n = 2 (range)” value ([4]; 200 mg drug + Arginine + SDS (40 mg + 20 mg), 30 min) of the same molecule?
**A.** Its value is 77 (74-80) %.

**Q.** What about the “% Release, Average of n = 2 (range)” value ([4]; 200 mg drug + Arginine + SDS (40 mg + 20 mg), 60 min) of the same molecule?
**A.** The value was 76 (74-78) %.

**Q.** What about the “% Release, Average of n = 2 (range)” value ([4]; 200 mg drug + Arginine + SDS (40 mg + 20 mg), 90 min) of the same molecule?
**A.** Its value is 72 (70-74) %.

**Q.** And the “% Release, Average of n = 2 (range)” value ([4]; 200 mg drug + Arginine + SDS (100 mg + 100 mg), 15 min)?
**A.** Its value is 92 (91-93) %.

**Q.** And the “% Release, Average of n = 2 (range)” value ([4]; 200 mg drug + Arginine + SDS (100 mg + 100 mg), 30 min)?
**A.** The value was 93 (93-94) %.

**Q.** What about the “% Release, Average of n = 2 (range)” value ([4]; 200 mg drug + Arginine + SDS (100 mg + 100 mg), 60 min, listed as Compound (1) Na Salt) of the same molecule?
**A.** Its value is 93 (93-93) %.

**Q.** And the “% Release, Average of n = 2 (range)” value ([4]; 200 mg drug + Arginine + SDS (100 mg + 100 mg), 60 min, listed as Compound (1) sodium salt crystalline)?
**A.** Its value is 93%.

**Q.** And the “% Release, Average of n = 2 (range)” value ([4]; 200 mg drug + Arginine + SDS (100 mg + 100 mg), 90 min)?
**A.** The value was 91 (89-92) %.

**Q.** And the “% Release, Average of n = 2 (range)” value ([4]; 200 mg drug + Arginine + VitE TPGS (40 mg + 20 mg), 15 min)?
**A.** Its value is 62 (61-63) %.

**Q.** And the “% Release, Average of n = 2 (range)” value ([4]; 200 mg drug + Arginine + VitE TPGS (40 mg + 20 mg), 30 min)?
**A.** Its value is 64 (62-67) %.

**Q.** And the “% Release, Average of n = 2 (range)” value ([4]; 200 mg drug + Arginine + VitE TPGS (40 mg + 20 mg), 60 min)?
**A.** The value was 65 (63-68) %.

**Q.** What about the “% Release, Average of n = 2 (range)” value ([4]; 200 mg drug + Arginine + VitE TPGS (40 mg + 20 mg), 90 min) of the same molecule?
**A.** Its value is 63 (60-66) %.

**Q.** What about the “% Release, Average of n = 2 (range)” value ([4]; 200 mg drug + Arginine + VitE TPGS (100 mg + 100 mg), 15 min) of the same molecule?
**A.** The value was 76 (74-78) %.

**Q.** What about the “% Release, Average of n = 2 (range)” value ([4]; 200 mg drug + Arginine + VitE TPGS (100 mg + 100 mg), 30 min) of the same molecule?
**A.** The value was 77 (76-78) %.

**Q.** And the “% Release, Average of n = 2 (range)” value ([4]; 200 mg drug + Arginine + VitE TPGS (100 mg + 100 mg), 60 min)?
**A.** The value was 78 (78-78) %.

**Q.** What about the “% Release, Average of n = 2 (range)” value ([4]; 200 mg drug + Arginine + VitE TPGS (100 mg + 100 mg), 90 min) of the same molecule?
**A.** The value was 76 (75-76) %.

**Q.** And the “% Release, average (range)” value ([4]; 200 mg drug + Lysine 100 mg, 90 (infinity), n = 4)?
**A.** Its value is 44 (33-46) %.

**Q.** And the “% Release, average (range)” value ([4]; 200 mg drug + Lysine 100 mg, 15 min, n = 4)?
**A.** The value was 18 (9-27) %.

**Q.** What about the “% Release, average (range)” value ([4]; 200 mg drug + Lysine 100 mg, 60 min, n = 4) of the same molecule?
**A.** Its value is 47 (33-54) %.

**Q.** And the “% Release, Average of n = 2 (range)” value ([4]; 200 mg drug + Lysine + SDS (40 mg + 20 mg), 15 min)?
**A.** The value was 75 (74-77) %.

**Q.** And the “% Release, Average of n = 2 (range)” value ([4]; 200 mg drug + Lysine + SDS (40 mg + 20 mg), 30 min)?
**A.** Its value is 77 (76-78) %.

**Q.** And the “% Release, Average of n = 2 (range)” value ([4]; 200 mg drug + Lysine + SDS (40 mg + 20 mg), 60 min)?
**A.** Its value is 75 (74-75) %.

**Q.** And the “% Release, Average of n = 2 (range)” value ([4]; 200 mg drug + Lysine + SDS (40 mg + 20 mg), 90 min)?
**A.** Its value is 72 (70-74) %.

**Q.** And the “% Release, Average of n = 2 (range)” value ([4]; 200 mg drug + Lysine + SDS (100 mg + 100 mg), 15 min)?
**A.** Its value is 40 (37-42) %.

**Q.** And the “% Release, Average of n = 2 (range)” value ([4]; 200 mg drug + Lysine + SDS (100 mg + 100 mg), 30 min)?
**A.** Its value is 74 (67-82) %.

**Q.** And the “% Release, Average of n = 2 (range)” value ([4]; 200 mg drug + Lysine + SDS (100 mg + 100 mg), 60 min)?
**A.** The value was 85 (85-86) %.

**Q.** What about the “% Release, Average of n = 2 (range)” value ([4]; 200 mg drug + Lysine + SDS (100 mg + 100 mg), 90 min) of the same molecule?
**A.** Its value is 85 (84-85) %.

**Q.** What about the “% Release, Average of n = 2 (range)” value ([4]; 200 mg drug + Lysine + VitE TPGS (40 mg + 20 mg), 15 min) of the same molecule?
**A.** The value was 37 (33-41) %.
